This passage reports IC50 results from patent US9169260B2 (MERCK SHARP & DOHME CORP., priority 2011, dated 2015).

SMILES strings stand for the structures.

Sequence of GST tagged IRAK-4 (Q9NWZ3 whole entry): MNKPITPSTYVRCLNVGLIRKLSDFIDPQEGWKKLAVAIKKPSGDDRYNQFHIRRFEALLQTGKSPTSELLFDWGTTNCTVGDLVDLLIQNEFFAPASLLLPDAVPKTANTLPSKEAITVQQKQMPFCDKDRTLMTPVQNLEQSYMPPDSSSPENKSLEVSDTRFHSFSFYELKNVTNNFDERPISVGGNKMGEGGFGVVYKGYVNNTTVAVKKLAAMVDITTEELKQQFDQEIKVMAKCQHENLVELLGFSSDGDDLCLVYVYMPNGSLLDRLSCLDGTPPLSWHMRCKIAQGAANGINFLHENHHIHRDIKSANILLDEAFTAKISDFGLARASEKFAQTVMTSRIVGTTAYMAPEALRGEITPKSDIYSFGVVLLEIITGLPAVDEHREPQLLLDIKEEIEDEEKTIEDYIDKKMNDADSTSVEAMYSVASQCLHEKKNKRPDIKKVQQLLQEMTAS

In one test the target is GST tagged IRAK-4 (Homo sapiens (Human), UniProt Q9NWZ3). Briefly: IRAK-4 Kinase Assay (IMAP fluorescence polarization). The format is biochemical. As to conditions: 100 μM ATP, 30 minutes at 25° C. The essentials:
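Activity was read by IMAP fluorescence polarization, where phosphopeptide binding to M(III) nanoparticles raises FP. The 30-minute, 25° C reaction used 100 μM ATP, 100 nM RP7030 substrate and 0.5 nM GST-IRAK-4 in pH 7.2 Tris buffer with MgCl2, DTT and Tween 20.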
In general terms: Fluorescence polarisation rises when a labelled molecule tumbles more slowly, as on binding a larger partner.
What is called IC50 is the concentration at which inhibition is half-maximal. A lower IC50 goes with greater potency. `CNS(=O)(=O)c1ccc(-c2cc(NC(=O)c3cnn4cccnc34)n(-c3ccc(C4CC4)cc3F)n2)cc1` [Example 101, N-(1-(4-cyclopropyl-2-fluorophenyl)-3-(4-(N-methylsulfamoyl)phenyl)-1H-pyrazol-5-yl)pyrazolo[1,5-a]pyrimidine-3-carboxamide] came in with a concentration for half-maximal inhibition (IC50) below 0.1 µM.

`O=C(Nc1cc(C2CCNCC2)nn1-c1c(F)cc(C2CC2)cc1F)c1cnn2cccnc12` [Example 77, N-(1-(4-cyclopropyl-2,6-difluorophenyl)-3-(piperidin-4-yl)-1H-pyrazol-5-yl)pyrazolo[1,5-a]pyrimidine-3-carboxamide] had an IC50 below 0.1 µM.

Molecule `Cc1ccc(-n2nc(C3CCN(C4CCC(N(C)S(C)(=O)=O)CC4)CC3)cc2NC(=O)c2cnn3cccnc23)nc1` (stereo not drawn) [Example 262, N-[3-(1-{4-[methyl(methylsulfonyl)amino]cyclohexyl}piperidin-4-yl)-1-(5-methylpyridin-2-yl)-1H-pyrazol-5-yl]pyrazolo[1,5-a]pyrimidine-3-carboxamide] returned a half-inhibitory concentration (IC50) below 0.1 µM.

As to `O=C(Nc1cc(C2CCNCC2)nn1-c1ccc(C2CC2)cc1)c1cnn2cccnc12` [Example 52, N-(1-(4-cyclopropylphenyl)-3-(piperidin-4-yl)-1H-pyrazol-5-yl)pyrazolo[1,5-a]pyrimidine-3-carboxamide], the IC50 is below 0.1 µM.

As for `Cc1ccc(-n2nc(-c3ccc(S(=O)(=O)N4CCN(C)CC4)cc3)cc2NC(=O)c2cnn3cccnc23)cc1` [Example 342, N-[1-(4-methylphenyl)-3-{4-[(4-methylpiperazin-1-yl)sulfonyl]phenyl}-1H-pyrazol-5-yl]pyrazolo[1,5-a]pyrimidine-3-carboxamide], the IC50 was below 0.1 µM.

As for `Cc1ccc(-n2nc(-c3ccc(S(=O)(=O)N(C)C)cc3C)cc2NC(=O)c2cnn3cccnc23)cc1` [Example 345, N-{3-[4-(dimethylsulfamoyl)-2-methylphenyl]-1-(4-methylphenyl)-1H-pyrazol-5-yl}pyrazolo[1,5-a]pyrimidine-3-carboxamide], the 50% inhibitory concentration (IC50) was below 0.1 µM.

As for `Cc1ccc(-n2nc(C3CCN(C4Cc5ccccc5C4)CC3)cc2NC(=O)c2cnn3cccnc23)nc1` [Example 282, N-{3-[1-(2,3-dihydro-1H-inden-2-yl)piperidin-4-yl]-1-(5-methylpyridin-2-yl)-1H-pyrazol-5-yl}pyrazolo[1,5-a]pyrimidine-3-carboxamide], the half-inhibitory concentration (IC50) was below 0.1 µM.

`COc1ccc(-n2nc(C3CCN(S(C)(=O)=O)CC3)cc2NC(=O)c2cnn3cccnc23)cc1` [Example 16, N-(1-(4-methoxyphenyl)-3-(1-(methylsulfonyl)piperidin-4-yl)-1H-pyrazol-5-yl)pyrazolo[1,5-a]pyrimidine-3-carboxamide]: the IC50 is below 0.1 µM.

As for `Cc1ccc(-n2nc(C3CCN(C4CCOCC4)CC3)cc2NC(=O)c2cnn3cc(Br)cnc23)cc1` [Example 110, 6-bromo-N-(3-(1-(tetrahydro-2H-pyran-4-yl)piperidin-4-yl)-1-(p-tolyl)-1H-pyrazol-5-yl)pyrazolo[1,5-a]pyrimidine-3-carboxamide], the half-maximal inhibitory concentration (IC50) was below 0.1 µM.

Take `CCOC(=O)N1CCC(N2CCC(c3cc(NC(=O)c4cnn5cccnc45)n(-c4ccc(C)cn4)n3)CC2)CC1` [Example 276, ethyl 4-{1-(5-methylpyridin-2-yl)-5-[(pyrazolo[1,5-a]pyrimidin-3-ylcarbonyl)amino]-1H-pyrazol-3-yl}-1,4′-bipiperidine-1′-carboxylate]: the IC50 is below 0.1 µM.

Turning to `Cc1ccc(-n2nc(-c3ccc(S(=O)(=O)C4CC4)cc3)cc2NC(=O)c2cnn3cccnc23)cc1` [Example 336, N-{3-[4-(cyclopropylsulfonyl)phenyl]-1-(4-methylphenyl)-1H-pyrazol-5-yl}pyrazolo[1,5-a]pyrimidine-3-carboxamide], the IC50 was below 0.1 µM.

Regarding `Cc1ccc(-n2nc(-c3ccc(C(=O)N(C)C)cc3)cc2NC(=O)c2cnn3cccnc23)cc1` [Example 349, N-{3-[4-(dimethylcarbamoyl)phenyl]-1-(4-methylphenyl)-1H-pyrazol-5-yl}pyrazolo[1,5-a]pyrimidine-3-carboxamide], the half-inhibitory concentration (IC50) was below 0.1 µM.

In the case of `Cc1ccc(-n2nc(C3CN(Cc4cncs4)C3)cc2NC(=O)c2cnn3cccnc23)cc1` [Example 312, N-{1-(4-methylphenyl)-3-[1-(1,3-thiazol-5-ylmethyl)azetidin-3-yl]-1H-pyrazol-5-yl}pyrazolo[1,5-a]pyrimidine-3-carboxamide], the IC50 was below 0.1 µM.

Molecule `Cc1ccc(-n2nc(-c3cccnc3)cc2NC(=O)c2cnn3cccnc23)cc1` [Example 123, N-(3-(pyridin-3-yl)-1-(p-tolyl)-1H-pyrazol-5-yl)pyrazolo[1,5-a]pyrimidine-3-carboxamide] showed an IC50 below 0.1 µM.

In turn, `Cc1ccc(-n2nc(-c3ccc(CO)nc3)cc2NC(=O)c2cnn3cccnc23)cc1` [Example 330, N-{3-[6-(hydroxymethyl)pyridin-3-yl]-1-(4-methylphenyl)-1H-pyrazol-5-yl}pyrazolo[1,5-a]pyrimidine-3-carboxamide] had a half-maximal inhibitory concentration (IC50) below 0.1 µM.

Consider `O=C(Nc1cc(C2CCN(C3CCC3)CC2)nn1-c1ccc(F)cc1F)c1cnn2cccnc12` [Example 49, N-(3-(1-cyclobutylpiperidin-4-yl)-1-(2,4-difluorophenyl)-1H-pyrazol-5-yl)pyrazolo[1,5-a]pyrimidine-3-carboxamide], for which the 50% inhibitory concentration (IC50) is below 0.1 µM.

Staying with this test, now noted: 100 μM ATP, 30 minutes at 25° C.; μM.
As for `Cc1ccc(-n2nc(C3CCN(S(=O)(=O)c4ccc(N5CCOCC5)nc4)CC3)cc2NC(=O)c2cnn3cccnc23)cc1` [Example 383, N-[1-(4-methylphenyl)-3-{1-[(6-morpholin-4-ylpyridin-3-yl)sulfonyl]piperidin-4-yl}-1H-pyrazol-5-yl]pyrazolo[1,5-a]pyrimidine-3-carboxamide], the 50% inhibitory concentration (IC50) is below 1 µM.

Regarding `O=C(Nc1cc(C2CCN(S(=O)(=O)C3CC3)CC2)nn1-c1ccc(OC(F)(F)F)cc1)c1cnn2cccnc12` [Example 27, N-(3-(1-(cyclopropylsulfonyl)piperidin-4-yl)-1-(4-(trifluoromethoxy)phenyl)-1H-pyrazol-5-yl)pyrazolo[1,5-a]pyrimidine-3-carboxamide], the concentration for half-maximal inhibition (IC50) is above 1 µM.

The molecule `Cc1ccc(-n2nc(C3CCN(S(=O)(=O)c4cccc5cccnc45)CC3)cc2NC(=O)c2cnn3cccnc23)cc1` [Example 396, N-{1-(4-methylphenyl)-3-[1-(quinolin-8-ylsulfonyl)piperidin-4-yl]-1H-pyrazol-5-yl}pyrazolo[1,5-a]pyrimidine-3-carboxamide] yielded an IC50 below 1 µM.

`Cc1cccc(-n2nc(C3CCN(S(C)(=O)=O)CC3)cc2NC(=O)c2cnn3cccnc23)c1` [Example 17, N-(3-(1-(methylsulfonyl)piperidin-4-yl)-1-(m-tolyl)-1H-pyrazol-5-yl)pyrazolo[1,5-a]pyrimidine-3-carboxamide]: the IC50 is below 1 µM.

Take `Cc1ccc(-n2nc(-c3ccc(S(C)(=O)=O)nc3)cc2NC(=O)c2cnn3cccnc23)cc1` [Example 351, N-{1-(4-methylphenyl)-3-[6-(methylsulfonyl)pyridin-3-yl]-1H-pyrazol-5-yl}pyrazolo[1,5-a]pyrimidine-3-carboxamide]: the 50% inhibitory concentration (IC50) is below 1 µM.

For `Cc1cc(F)ccc1-n1nc(C2CCNCC2)cc1NC(=O)c1cnn2cccnc12` [Example 68, N-(1-(4-fluoro-2-methylphenyl)-3-(piperidin-4-yl)-1H-pyrazol-5-yl)pyrazolo[1,5-a]pyrimidine-3-carboxamide], the IC50 is above 1 µM.

Consider `Cc1ccc(-n2nc(C3CCCN(CC4CC4)C3)cc2NC(=O)c2cnn3cccnc23)cc1` (stereo not drawn) [Example 297, N-{3-[1-(cyclopropylmethyl)piperidin-3-yl]-1-(4-methylphenyl)-1H-pyrazol-5-yl}pyrazolo[1,5-a]pyrimidine-3-carboxamide], for which the IC50 is below 1 µM.

`Cc1ccc(-n2nc(C3CCN(C4CN(S(=O)(=O)CF)C4)CC3)cc2NC(=O)c2cnn3cccnc23)cc1` [Example 247, N-[3-(1-{1-[(fluoromethyl)sulfonyl]azetidin-3-yl]piperidin-4-yl)-1-(4-methylphenyl)-1H-pyrazol-5-yl}pyrazolo[1,5-a]pyrimidine-3-carboxamide] came in with an IC50 below 1 µM.

On to `Cc1ccc(-n2nc(C3CCN(S(=O)(=O)c4cccc(C(F)(F)F)n4)CC3)cc2NC(=O)c2cnn3cccnc23)cc1` [Example 394, N-[1-(4-methylphenyl)-3-(1-{[6-(trifluoromethyl)pyridin-2-yl]sulfonyl}piperidin-4-yl)-1H-pyrazol-5-yl]pyrazolo[1,5-a]pyrimidine-3-carboxamide], for which the IC50 is below 1 µM.

In the case of `COCCS(=O)(=O)N1CC(c2cc(NC(=O)c3cnn4cccnc34)n(-c3ccc(C)cc3)n2)C1` [Example 86, N-(3-(1-((2-methoxyethyl)sulfonyl)azetidin-3-yl)-1-(p-tolyl)-1H-pyrazol-5-yl)pyrazolo[1,5-a]pyrimidine-3-carboxamide], the IC50 is below 1 µM.

The molecule `CCCCS(=O)(=O)N1CCC(c2cc(NC(=O)c3cnn4cccnc34)n(-c3ccc(C)cc3)n2)CC1` [Example 369, N-{3-[1-(butylsulfonyl)piperidin-4-yl]-1-(4-methylphenyl)-1H-pyrazol-5-yl}pyrazolo[1,5-a]pyrimidine-3-carboxamide] came in with a half-maximal inhibitory concentration (IC50) below 1 µM.

For the molecule `CCS(=O)(=O)N1CC(N2CCC(c3cc(NC(=O)c4cnn5cccnc45)n(-c4ccc(C)cc4)n3)CC2)C1` [Example 243, N-[3-{1-[1-(ethylsulfonyl)azetidin-3-yl]piperidin-4-yl}-1-(4-methylphenyl)-1H-pyrazol-5-yl]pyrazolo[1,5-a]pyrimidine-3-carboxamide], the IC50 is below 1 µM.

Consider `Cc1ccc(-n2nc(C3CCN(S(=O)(=O)c4ccc5ncsc5c4)CC3)cc2NC(=O)c2cnn3cccnc23)cc1` [Example 384, N-{3-[1-(1,3-benzothiazol-6-ylsulfonyl)piperidin-4-yl]-1-(4-methylphenyl)-1H-pyrazol-5-yl}pyrazolo[1,5-a]pyrimidine-3-carboxamide], for which the concentration for half-maximal inhibition (IC50) is below 1 µM.

In turn, `CS(=O)(=O)N1CCC(c2cc(NC(=O)c3cnn4cccnc34)n(-c3ccc(F)cc3F)n2)CC1` [Example 28] displayed a half-maximal inhibitory concentration (IC50) below 1 µM.
